Laboratory results: PMC4564450, “Oral and inhaled p38 MAPK inhibitors: effects on inhaled LPS challenge in healthy subjects” (European Journal of Clinical Pharmacology, 2015)

Legend:
[1] = test system: IL-6, MCP-1, MIP1β, CC16, fibrinogen and CRP levels in plasma; assay: Inhaled LPS challenge: plasma protein biomarkers; assay type: in vivo, human; settings: study 2; for Plasma CC16, mean / Plasma CRP, mean / Plasma Fibrinogen, mean / Plasma IL-6, mean / Plasma MCP-1, mean / Plasma MIP-1β, mean: PH-797804 30 mg oral or PF-03715455 20 mg inhaled, 6 hrs post LPS
Experimental: Blood samples were obtained in studies 2 and 3 to obtain plasma measurements of IL-6, MCP-1, MIP1β, CC16, fibrinogen and CRP levels; pre-dose and 6 h post-LPS samples were used for statistical analysis. This coincided with the timings of sputum measurements of inflammation biomarkers.
Systemic biomarkers were analysed using a similar mixed effects model; these models also adjusted for pre-dose baseline values, which were obtained 24 h prior to LPS challenge in study 2 and 30 min prior to LPS challenge in study 3.

[2] = Safety: treatment emergent adverse events; assay type: in vivo, human; settings: for safety and tolerability: single doses, healthy subjects, studies 1 and 2
Experimental: Safety was assessed in these studies by physical examinations, haematology and biochemistry measurements, ECG analysis and reporting of any adverse events.
Summary of Number ofSubjects Experiencing Treatment EmergentAdverse Events by MedDRA System Organ Class

[3] = cited from earlier work
[4] = healthy subjects; ref previous phase 1 studies (unpublished); cited from earlier work
p38 MAPK = settings: no reference given; read-out: enzyme IC50; cited from earlier work
[5] = study 2, PF-03715455 20mg (n=27), PH-797804 30mg (n=23)
[6] = study 2, PF-03715455 20mg (n=27), PH-797804 30mg (n=23), hangover (PF-03715455), loss of libido and insomnia (PH-797804)

SMILES	Plasma CC16, mean [1]	Plasma CRP, mean [1]	Plasma Fibrinogen, mean [1]	Plasma IL-6, mean [1]	Plasma MCP-1, mean [1]	Plasma MIP-1β, mean [1]	safety and tolerability [2]	Number of subjects with treatment emergent AE: Eye Disorders [2, 5]	Number of subjects with treatment emergent AE: Gastrointestinal Disorders [2, 5]	Number of subjects with treatment emergent AE: General Disorders and Administration Site Conditions [2, 5]	Number of subjects with treatment emergent AE: Immune system disorders [2, 5]	Number of subjects with treatment emergent AE: Injury, Poisoning and Procedural Complications [2, 5]	Number of subjects with treatment emergent AE: Musculoskeletal and Connective tissue disorders [2, 5]	Number of subjects with treatment emergent AE: Nervous system disorders [2, 5]	Number of subjects with treatment emergent AE: Respiratory, thoracic and mediastinal disorders [2, 5]	Number of subjects with treatment emergent AE: Skin and subcutaneous tissue disorders [2, 5]	Number of subjects with treatment emergent AE: Vascular disorders [2, 5]	Number of subjects with treatment emergent AE: Psychiatric disorders [2, 6]	time of maximum systemic concentration (tmax) [4]	other results
CNC(=O)c1ccc(C)c(-n2c(C)cc(OCc3ccc(F)cc3F)c(Br)c2=O)c1 [PH-797804]	9.34 ng/mL	462.10 ng/mL	2172.70 µg/mL	5.47 pg/mL	261.50 pg/mL	33.82 pg/mL	safe and generally well tolerated	1	0	3	0	1	0	8	3	0	0	2	approximately 24 h	plasma IL-6, MIP1β, MCP-1, CC16 and CRP levels compared to placebo ([1]; PH-797804 30 mg oral, 6 h post-LPS challenge): statistically significant reductions; Number of subjects with treatment emergent AE: Eye Disorders ([2]; study 1, PH-797804 30mg (n=17)): 1; Number of subjects with treatment emergent AE: Gastrointestinal Disorders ([2]; study 1, PH-797804 30mg (n=17)): 0; Number of subjects with treatment emergent AE: General Disorders and Administration Site Conditions ([2]; study 1, PH-797804 30mg (n=17)): 1; Number of subjects with treatment emergent AE: Infections and infestations ([2]; study 1, PH-797804 30mg (n=17)): 1; Number of subjects with treatment emergent AE: Injury, Poisoning and Procedural Complications ([2]; study 1, PH-797804 30mg (n=17)): 1; Number of subjects with treatment emergent AE: Investigation (raised blood potassium) ([2]; study 1, PH-797804 30mg (n=17)): 0; Number of subjects with treatment emergent AE: Musculoskeletal and Connective tissue disorders ([2]; study 1, PH-797804 30mg (n=17)): 1; Number of subjects with treatment emergent AE: Nervous system disorders ([2]; study 1, PH-797804 30mg (n=17)): 2; Number of subjects with treatment emergent AE: Respiratory, thoracic and mediastinal disorders ([2]; study 1, PH-797804 30mg (n=17)): 0; Number of subjects with treatment emergent AE: Skin and subcutaneous tissue disorders ([2]; study 1, PH-797804 30mg (n=17)): 0; Number of subjects with treatment emergent AE: Psychiatric disorders ([2]; study 1, PH-797804 30mg (n=17), event was insomnia lasting 1 hr): 1; Number of subjects with treatment emergent AE: Infections and infestations [2, 5]: 2; improvement of FEV1 ([3]; COPD patients treated for 6 weeks): 93 mL; pulmonary function ([3]; COPD trial): clinically significant improvement; tolerability in COPD trials ([3]; oral, up to 24-week duration): well tolerated
CC(C)(C)c1cc(NC(=O)NCc2ccccc2Sc2ccc3nnc(-c4ccccc4SCCO)n3c2)n(-c2ccc(O)c(Cl)c2)n1 [PF-03715455]	10.19 ng/mL	475.90 ng/mL	2340.40 µg/mL	14.43 pg/mL	340.30 pg/mL	71.55 pg/mL	safe and generally well tolerated	0	2	3	0	0	0	5	2	1	1	1	~30 min	plasma IL-6, MCP-1, MIP1β and CC16 compared to placebo ([1]; PF-03715455 20 mg inhaled, 6 h post-LPS challenge): statistically significant reductions; AE requiring withdrawal ([2]; study 2, one subject, 5 days after dosing, investigator did not consider it related): cellulitis; IC50 (p38 MAPK): 5 to 50 pM
